Source: patent US5688938A, “Calcium receptor-active molecules” (priority 1995, dated 1997)
Where a name gives a salt, the structure may show the parent alone. Read-outs that look alike come from different tables or passages of the source.

Molecular target: T1, parathyroid cell calcium receptor (Bos taurus, UniProt P35384)
T1 sequence (P35384 21-1085 limits assumed): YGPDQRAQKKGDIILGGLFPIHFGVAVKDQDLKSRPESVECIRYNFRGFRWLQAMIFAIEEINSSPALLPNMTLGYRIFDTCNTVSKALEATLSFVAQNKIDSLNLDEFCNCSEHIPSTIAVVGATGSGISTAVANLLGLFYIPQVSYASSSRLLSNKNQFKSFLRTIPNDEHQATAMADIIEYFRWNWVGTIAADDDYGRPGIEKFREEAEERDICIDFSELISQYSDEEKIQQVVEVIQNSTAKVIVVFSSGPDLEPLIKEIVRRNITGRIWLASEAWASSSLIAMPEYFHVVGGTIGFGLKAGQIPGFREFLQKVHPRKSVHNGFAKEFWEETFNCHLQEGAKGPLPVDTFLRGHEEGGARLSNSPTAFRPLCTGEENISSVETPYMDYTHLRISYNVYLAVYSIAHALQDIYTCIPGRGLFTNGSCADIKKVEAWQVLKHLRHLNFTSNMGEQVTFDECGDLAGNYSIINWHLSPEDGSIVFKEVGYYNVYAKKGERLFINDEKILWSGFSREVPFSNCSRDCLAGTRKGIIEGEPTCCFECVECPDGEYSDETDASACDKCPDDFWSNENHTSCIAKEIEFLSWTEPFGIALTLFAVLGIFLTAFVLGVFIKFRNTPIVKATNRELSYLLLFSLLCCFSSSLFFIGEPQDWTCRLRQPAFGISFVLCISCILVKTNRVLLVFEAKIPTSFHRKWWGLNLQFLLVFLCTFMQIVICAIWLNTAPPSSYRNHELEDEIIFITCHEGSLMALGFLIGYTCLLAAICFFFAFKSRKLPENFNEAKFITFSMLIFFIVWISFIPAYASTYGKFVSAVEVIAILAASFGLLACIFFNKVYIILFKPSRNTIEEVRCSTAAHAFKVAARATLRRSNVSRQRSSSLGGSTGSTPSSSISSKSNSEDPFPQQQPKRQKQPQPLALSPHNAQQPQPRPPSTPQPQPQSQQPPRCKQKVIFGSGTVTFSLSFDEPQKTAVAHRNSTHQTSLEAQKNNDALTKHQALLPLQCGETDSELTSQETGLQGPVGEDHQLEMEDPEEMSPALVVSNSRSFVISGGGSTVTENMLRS
Test: cell-based
Type: cell-based
Conditions: for effect on basal [Ca^2+]i or increases evoked by extracellular Ca^2+: 1 μM; for response to mGluR agonists: bovine parathyroid cells, or Xenopus oocytes expressing calcium receptors; for effect on [Ca^2+]i response to extracellular Mg^2+: ionomycin 1 μM, 1799 5 μM; for relative potency: in words

[1] = Table 8 (arylalkylamine calcimimetics), parathyroid cell calcium receptor, read-out: EC50
[2] = parathyroid cell calcium receptor, […], read-out: EC50
[3] = Table 7, parathyroid cell calcium receptor, read-out: EC50

Method: For example,.bovine parathyroid cells loaded with fura-2 are initially suspended in buffer containing 0.5 mM CaCl2. A test substance is added to the cuvette in a small volume (5-15 μl) and changes in the fluorescence signal are measured. Cumulative increases in the concentration of the test substance are made in the cuvette until some predetermined concentration is achieved or no further changes in fluorescence are noted.
This section describes procedures used to obtain and treat parathyroid cells from calves and humans. […] Human parathyroid glands, were obtained from patients undergoing surgical removal of parathyroid tissue for primary or uremic hyperparathyroidism (uremic HPT), and were treated similarly to bovine tissue.
Glands were trimmed of excess fat and connective tissue and then minced with fine scissors into cubes approximately 2-3 mm on a side. Dissociated parathyroid cells were prepared by collagenase digestion and then purified by centrifugation in Percoll buffer. The resultant parathyroid cell preparation was essentially devoid of red blood cells, adipocytes, and capillary tissue as assessed by phase contrast microscopy and Sudan black B staining. Dissociated and purified parathyroid cells were present as small clusters containing 5 to 20 cells.
The cells were then transferred to plastic flasks (75 or 150 cm^2 ; Falcon) and incubated overnight at 37° C. in a humid atmosphere of 5% CO2. No serum is added to these overnight cultures, since its presence allows the cells to attach to the plastic, undergo proliferation, and dedifferentiate. Cells cultured under the above conditions were readily removed from the flasks by decanting, and show the same viability as freshly prepared cells.
The cells were then pelleted, resuspended in the same buffer, but lacking the ester, and incubated a further 15 minutes at 37° C. The cells were subsequently washed twice with PCB containing 0.5 mM CaCl2 and 0.5% BSA and maintained at room temperature (about 20° C.). Immediately before use, the cells were diluted five-fold with prewarmed 0.5mM CaCl2 -PCB to obtain a final BSA concentration of 0.1%. The concentration of cells in the cuvette used for fluorescence recording was 1-2×10^6 /ml.
The fluorescence of indicator-loaded cells was measured at 37° C. in a spectrofluorimeter (Biomedical Instrumentation Group, University of Pennsylvania, Philadelphia, Pa.) equipped with a thermostated cuvette holder and magnetic stirrer using excitation and emission wavelengths of 340 and 510 nm, respectively. […] Leakage of dye is dependent on temperature and most occurs within the first 2 minutes after warming the cells in the cuvette. Dye leakage increases only very slowly thereafter. To correct the calibration for dye leakage, cells were placed in the cuvette and stirred at 37° C. for 2-3 minutes. The cell suspension was then removed, the cells pelleted, and the supernatant returned to a clean cuvette. […] This estimate was subtracted from the apparent Fmin.
Dissociated bovine parathyroid cells were purified on gradients of Percoll and cultured overnight in serum-free medium. […] That is,

Compound	EC50 [1]	other results
COc1cccc([C@@H](C)N[C@H](C)CCc2ccccc2)c1 [Compound 21D]	3000 nM	–
COc1cccc([C@@H](C)NC2CCN(Cc3ccccc3)CC2)c1 [Compound 20F]	< 1000 nM	–
COC(=O)C1=C(C)NC(C)=C([N+](=O)[O-])C1c1ccccc1C(F)(F)F (centres unmarked) [BAY K 8644, reference compound]	–	effect on basal [Ca^2+]i or increases evoked by extracellular Ca^2+: None of the dihydropyridines tested
COc1cccc([C@@H](C)NCCCc2cccc(F)c2)c1 [Compound 4N]	800 nM	–
COc1cccc([C@@H](C)NC2CCc3ccccc3C2)c1 (some centres unmarked) [5W/5Y]	3600 nM	–
C[C@@H](NCc1ccc2c(c1)OCO2)c1cccc2ccccc12 [Compound 16R]	360 nM	–
COc1cccc([C@@H](C)NCCCc2ccc(OC)c(OC)c2)c1 [Compound 20J]	> 3000 nM	–
C[C@@H](NCc1ccc2ccccc2c1)c1cccc2ccccc12 [Compound 9C]	600 nM	–
COc1ccc([C@@H](C)N[C@H](C)c2cccc3ccccc23)cc1Cl [Compound 17X, (R,R)-N-(1-Ethyl-4'-methoxy-3'-chlorophenyl)-1-(1-naphthylethyl)amine]	20 nM	EC50 [2]: < 5000 nM
N=C(N)NCCC[C@H](N)C(=O)NCCCNCCCNCCCCCNC(=O)[C@H](CC(N)=O)NC(=O)Cc1ccc(O)cc1O [Argiotoxin-636, reference compound]	–	increases in [Ca^2+]i (400 μM): did not elicit increases; potentiation of cytosolic Ca^2+ responses to extracellular Ca^2+ (400 μM): did potentiate; increases in [Ca^2+]i (100 to 300 μM): had no effect
CCC(NCCC(c1ccccc1)c1ccccc1)c1ccccc1 (centres unmarked) [Compound 1E]	–	EC50 [3]: 123000 nM
C[C@H](NCCCc1ccccc1)C1CCCCC1 [Compound 7Y]	–	EC50 [3]: > 30000 nM
CCOc1cccc([C@@H](C)NCCCc2ccccc2)c1 [Compound 6R]	3400 nM	–
COc1ccc(CN[C@H](C)c2cccc3ccccc23)cc1C [Compound 16Q]	40 nM	–
N[C@@]1(C(=O)O)CC[C@@H](C(=O)O)C1 (relative stereo) [trans-ACPD, reference compound]	–	response to mGluR agonists: did not respond
COc1cccc([C@H](C)NCCCc2ccc(OC)c(OC)c2)c1 [Compound 20K]	–	EC50 [3]: > 30000 nM
COc1cccc([C@@H](C)NCCCc2cccc(C)c2)c1 [Compound 12V, (R)-N-3-(3-Methylphenyl)-1-propyl-3-methoxy-α-methylbenzylamine hydrochloride]	420 nM	EC50 [2]: < 5000 nM
CC(NCCC(c1ccccc1)c1ccccc1)c1cccc2ccccc12 (centres unmarked) [Compound 3U]	640 nM	–
COc1ccc(OC)c([C@@H](C)NCCCc2ccccc2)c1 [7Z(R-)]	–	EC50 [3]: > 30000 nM
COc1cccc([C@H](C)NCCCc2ccccc2)c1 [NPS S-467]	–	EC50 (Table 6, bovine parathyroid cells, read-out: EC50 PARATHYROID): > 30000 nM; EC50 [3]: > 30000 nM

Compound	EC50 [1]	other results
C[C@@H](NCc1ccc(Cl)c(Cl)c1)c1cccc2ccccc12 [Compound 13R]	250 nM	–
COc1cccc(C(C)NC(C)c2cccc3ccccc23)c1 (centres unmarked) [Compound 6E]	2700 nM	–
COc1cccc(C(C)NC(C)CCc2ccccc2)c1 (centres unmarked) [Compound 20R]	2400 nM	–
COc1cccc([C@@H](C)NCCCc2ccccc2OC)c1 [Compound 8U, (R)-(+)-N-3-(2-Methoxyphenyl)-1-propyl-3-methoxy-α-methylbenzylamine hydrochloride]	440 nM	EC50 [2]: < 5000 nM
COc1cccc([C@@H](C)NCCCc2ccccc2C)c1 [Compound 12U, (R)-N-3-(2-Methylphenyl)-1-propyl-3-methoxy-α-methylbenzylamine hydrochloride]	1200 nM	EC50 [2]: < 5000 nM
COc1ccc(OC)c([C@H](C)NCCCc2ccccc2)c1 [7Z(S-)]	–	EC50 [3]: > 100000 nM
COc1cccc([C@@H](C)NCCCc2ccccc2C(F)(F)F)c1 [Compound 21O]	260 nM	–
C[C@H](CCC(=O)O)C[C@H](C)C[C@H](C)C(=O)/C=C(\O)[C@H](C)C[C@H](C)C/C=C/[C@@H](C)[C@@H](O)[C@@H](C)[C@@H](O)C[C@@H]1CC[C@@](C)([C@H]2CC[C@@](C)([C@@H](C)O)O2)O1 [ionomycin, reference compound]	–	effect on [Ca^2+]i response to extracellular Mg^2+: blocks the response to Mg^2+
N[C@@H](Cn1oc(=O)[nH]c1=O)C(=O)O [quisqualate, reference compound]	–	response to mGluR agonists: did not respond
COc1ccc(CCCN[C@H](C)c2cccc(OC)c2)cc1 [Compound 20I]	> 1000 nM	–
COc1ccc(CN[C@H](C)c2cccc3ccccc23)cc1 [Compound 13U]	190 nM	–
COc1cccc(C(C)NCCC(C)c2ccccc2Cl)c1 (centres unmarked) [Compound 4Y]	1300 nM	–
COc1ccc([C@@H]2Sc3ccccc3N(CCN(C)C)C(=O)[C@@H]2OC(C)=O)cc1 [diltiazem, reference compound]	–	effective at 100 μM (as verapamil and D-600) (100 μM): effective
COc1cccc([C@@H](C)NCCCc2ccc(C(F)(F)F)cc2)c1 [Compound 21Q]	1400 nM	–
CCCOc1ccc(CN[C@H](C)c2cccc3ccccc23)cc1 [Compound 13Q]	~800 nM	–
CSc1ccc(CN[C@H](C)c2cccc3ccccc23)cc1 [Compound 16X]	100 nM	–
Cc1ccc(CN[C@H](C)c2cccc3ccccc23)cc1C [Compound 16V]	< 130 nM	–
CCCCCCCCCCCCCC(=O)O[C@@H]1[C@@H](C)[C@@]2(O)[C@@H](C=C(CO)C[C@]3(O)C(=O)C(C)=C[C@@H]23)[C@@H]2C(C)(C)[C@]12OC(C)=O [PMA, phorbol myristate acetate, reference compound]	–	effect on mobilization of intracellular Ca^2+ elicited by molecular polycations: depressed
CCC(CCc1ccccc1)NC(C)c1cccc(OC)c1 (centres unmarked) [Compound 20S]	4200 nM	–
C[C@H](CCc1ccccc1)N[C@H](C)c1cccc2ccccc12 [Compound 21F]	380 nM	–

Compound	EC50 [1]	other results
c1ccc(CNCCC(c2ccccc2)c2ccccc2)cc1 [Compound 1A]	–	EC50 [3]: 166000 nM
CC(NCCCc1ccccc1)c1ccccc1 (centres unmarked) [Compound 1D]	–	EC50 [3]: 48000 nM; relative potency: nearly as potent as the parent molecule
CC1=C(C(=O)OC(C)C)C(c2cccc3nonc23)C([N+](=O)[O-])=C(C)N1 (single isomer, unassigned; (-)) [(-) 202-791, reference compound]	–	effect on basal [Ca^2+]i or increases evoked by extracellular Ca^2+: None of the dihydropyridines tested
COc1ccc([C@H](C)N[C@H](C)c2cccc3ccccc23)cc1 [Compound 14V]	1700 nM	–
C[C@@H](NCc1ccc(C(F)(F)F)cc1)c1cccc2ccccc12 [Compound 13S]	< 130 nM	–
C[C@@H](CCc1ccccc1)N[C@H](C)c1cccc2ccccc12 [Compound 21G]	1100 nM	–
CCCC(=O)N[C@@H](Cc1ccc(O)cc1)C(=O)NCCCCNCCCNCCCN [Philanthotoxin-433, reference compound]	–	effect on intracellular Ca^2+ (500 μM): without effect
CCOc1ccc(CN[C@H](C)c2cccc3ccccc23)cc1 [Compound 16W]	590 nM	–
COc1cccc([C@H](C)NCCCc2ccc(C)cc2)c1 [Compound 8Y]	–	EC50 [3]: > 30000 nM
COC(=O)C1=C(C)NC(C)=C(C(=O)OC)C1c1ccccc1[N+](=O)[O-] [nifedipine, reference compound]	–	effect on basal [Ca^2+]i or increases evoked by extracellular Ca^2+: None of the dihydropyridines tested
CCOC(=O)C1=C(C)NC(C)=C(C(=O)OC)C1c1cccc([N+](=O)[O-])c1 (centres unmarked) [nitrendipine, reference compound]	–	effect on basal [Ca^2+]i or increases evoked by extracellular Ca^2+: None of the dihydropyridines tested
COc1cccc(C(C)NCCC(c2ccccc2)c2ccccc2)c1 (centres unmarked) [meta-Methoxyfendiline]	–	relative potency: as potent as NPS 467
CC(C)C(N[C@H](C)c1cccc2ccccc12)c1ccc2ccccc2c1 (some centres unmarked) [Compound 10F]	890 nM	–
CCOc1cccc([C@@H](C)NCCCc2ccccc2Cl)c1 [Compound 6T]	2900 nM	–
COc1ccc(CN[C@H](C)c2cccc3ccccc23)cc1F [Compound 16T]	40 nM	–
CCOC(=O)COc1cccc([C@@H](C)NCc2ccc3ccccc3c2)c1 [Compound 11D]	1800 nM	–
O=C(CC(O)(C(F)(F)F)C(F)(F)F)CC(O)(C(F)(F)F)C(F)(F)F [molecule 1799, reference compound]	–	effect on [Ca^2+]i response to extracellular Mg^2+: without effect on the response to Mg^2+
C[C@H](NCCC(c1ccccc1)c1ccccc1)c1ccccc1 [S-Fendiline]	–	EC50 [3]: > 15000 nM
COc1cccc([C@@H](C)NCCCc2ccc(C)cc2)c1 [Compound 8X]	760 nM	–
C[C@@H](NCc1ccc2c(c1)OCCO2)c1cccc2ccccc12 [Compound 13X]	< 750 nM	–
